Target: T1, Aurora A (Homo sapiens, UniProt O14965)
T1 construct: gene AURKA
T1 sequence (O14965 1-403): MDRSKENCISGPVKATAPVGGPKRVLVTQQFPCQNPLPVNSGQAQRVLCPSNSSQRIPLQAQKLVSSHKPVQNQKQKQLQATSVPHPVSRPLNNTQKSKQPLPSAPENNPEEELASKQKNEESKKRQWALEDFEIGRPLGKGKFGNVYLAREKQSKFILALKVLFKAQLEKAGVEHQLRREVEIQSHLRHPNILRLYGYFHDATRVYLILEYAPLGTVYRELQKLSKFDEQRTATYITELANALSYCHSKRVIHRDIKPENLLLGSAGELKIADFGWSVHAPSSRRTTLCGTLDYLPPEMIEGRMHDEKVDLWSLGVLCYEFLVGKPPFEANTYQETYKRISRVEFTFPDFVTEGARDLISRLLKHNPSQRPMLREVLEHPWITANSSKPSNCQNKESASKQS
Experiment: microfluidic mobility shift kinase assay; also cellular thermal shift assay (Aurora A levels reduced with GNA at […]°C)
Assay type: biochemical

## CC(C)=CCC/C(C)=C/Cc1c(O)c(CC=C(C)C)c2c(c1O)C(=O)C1=C[C@@H]3C[C@H]4C(C)(C)O[C@@](C/C=C(/C)C(=O)O)(C3=O)[C@@]14O2 [GNA, gambogenic acid]
  IC50: 1420 nM
